According to patent US20220218614A1, “IONIZABLE CATIONIC LIPIDS AND LIPID NANOPARTICLES, AND METHODS OF SYNTHESIS AND USE THEREOF” (Tidal Therapeutics, Inc., priority 2020, published 2022):
Entries after “also recorded” stand apart in the source; their conditions may differ.

Tests used:
human CD3 T cells = assay: Transfection of human CD3 T cells (CD8 and CD4 subsets) with Fab/Nb-targeted LNPs; assay type: cell-based; conditions: targeted Lipid 8 LNP (Lipid 5 in Example 43), GFP mRNA approximately 2.5 μg/mL, approximately 24 hr
Method: LNPs were prepared using the mixing process described in Example 6, the buffer exchange process described below in Example 21. Using methods similar to Example 12, hSP34 and TRX2 Fab-lipid conjugates and a non-T cell specific anti-HER2 lipid-conjugate (Nellis D F, Ekstrom D L, Kirpotin D B, Zhu J, Andersson R, Broadt T L, Ouellette T F, Perkins S C, Roach J M, Drummond D C, Hong K, Marks J D, Park J W and Giardina S L (2005) Preclinical manufacture of an anti-HER2 scFv-PEG-DSPE, liposome-inserting conjugate. 1. Gram-scale production and purification. Biotechnol Prog 21:205-220) were post-inserted at various densities (SP34 0.25-17 g/mol; TRX2 0.25-9 g/mol; SP34+TRX2 0.25-9 g/mol each conjugate; anti-HER2 17 g/mol) into LNPs containing Lipid 8 and anti-CD20 targeting CART mRNA. Transfections were performed with human CD3 T cells at approximately 2.5 μg/mL mRNA for approximately 24 hr. For FACS analysis T cells were stained with M1 antibody (Sigma, F3040) that bind a N-terminus FLAG-tag variant sequence on the TTR-023 CAR (sequence provided below) in addition to staining for CD69 (Biolegend, 310930) and CD4 (Biolegend, 344648) to differentiate CD8 from CD4 cells.
LNPs were prepared using the mixing process described in Example 6, the buffer exchange process described in Example 21. Using methods similar to Example 12, hSP34, TRX2, and Ibalizumab Fab-lipid conjugates and a non-T cell specific anti-HER2 lipid-conjugate were post-inserted at various densities (specified in FIGS. 20A and 20B into LNPs containing Lipid 8 and Cy5/GFP mRNA. Transfections were performed with human CD3 T cells at approximately 2.5 μg/mL mRNA for approximately 24 hr and stained for CD69 (Biolegend, 310930) and CD4 (Biolegend, 344648) to differentiate CD8 from CD4 cells by FACS analysis.
LNPs were prepared using the mixing process described in Example 6, the buffer exchange process described in Example 21. […] Levels of transfection of CD3 T cells was measured by flow cytometry. […]

IFNγ = assay: Human IFNγ ELISA of T cell culture supernatants after LNP transfection; assay type: cell-based; conditions: T cells approximately 24 hr after targeted LNPs at approximately 2.5 μg/mL mRNA
Method: LNPs were prepared using the mixing process described in Example 6, the buffer exchange process described in Example 21. hSP34 and TRX2 Fab-lipid conjugates generated from methods described in Example 4 and a non-T cell specific anti-HER2 lipid-conjugate (Nellis D F, Ekstrom D L, Kirpotin D B, Zhu J, Andersson R, Broadt T L, Ouellette T F, Perkins S C, Roach J M, Drummond D C, Hong K, Marks J D, Park J W and Giardina S L (2005) Preclinical manufacture of an anti-HER2 scFv-PEG-DSPE, liposome-inserting conjugate. 1. Gram-scale production and purification. Biotechnol Prog 21:205-220) were post-inserted at various densities (SP34 0.6-17 g/mol; TRX2 3-9 g/mol; anti-HER2 17 g/mol) into LNPs containing Lipid 8, Cy5 labeled GFP mRNA and GFP mRNA (1:9 Cy5:GFP mass ratio) by adding conjugate and LNPs together and heating the solution without mixing in a thermal cycler at 60 C for 60 min and cooled to 4° C. for 3-5 min. […] After transfection, LNP binding efficiency (Cy5) and transfection efficiency (GFP) was evaluated by flow cytometry. Supernatants were measured for human IFNγ concentration using a commercially available ELISA kit under manufacturers recommended conditions (R&D Systems Duoset).
IFN-γ was assayed using an R&D Duoset […] ELISA kit, PN DY285B. […] Optical density at 450 nm was read on a Spectramax M5 plate reader. […]

Row | Substance | % GFP transfection and GFP expression (MFI) of CD8 and CD4 T cells, in words (human CD3 T cells) | IFNγ secretion into supernatant, in words (IFNγ)
1 | TRX4: anti-CD3 TRX4 bDS Fab, SEQ ID NO: 50 and 51 | lower levels of GFP expression | higher levels of IFNγ secretion than SP34
2 | SP34 NoDS Fab: anti-CD3 Fab without interchain disulfide, SEQ ID NO: 38 and 39 | higher % transfection (FIG. 65E) and higher GFP expression levels (FIG. 65F) than the SP34 DS Fab; also recorded: higher % transfection (FIG. 67A) and higher GFP expression levels | 
